Measured values as given in patent publication US11453689B2, “3-pyrrolidine-indole derivatives as serotonergic psychedelic agents for the treatment of CNS disorders” (Mindset Pharma Inc., priority 2020, dated 2022).

System: head-twitch response (HTR) in male C57BL6 mice
Test: Mouse head-twitch response (HTR)
Format: in vivo
Settings: M100907 0.5 mg/kg IP before I-2 10 mg/kg SC
Procedure: Male, C57BL/6J mice (body weight range 20-30 g) were dosed with the appropriate dose of test article, and following a 1-minute pre-treatment time, placed in individual observation chambers. Animals were visually assessed for the incidence head twitches continuously over a 1 hr period. Head twitches were defined as a rapid jerk of the head which was not elicited by an external tactile stimulus (Come and Pickering, Psychopharmacologia, 1967, 11(1): 65-78). Each head twitch was individually counted by a trained observer, and the data expressed as the mean±SEM of 6-10 mice per group. Mice were used in a single experiment only.
The effect of various doses of exemplary compound of Formula I, I-2, on head-twitch response (HTR) in male C57BL6 mice were measured. The mice were treated with compound I-2 (0.03-10 mg/kg, SC) by SC route (N=6 mice/dose), and the total number of head twitches were recorded over a 1h period. Data is expressed as mean±SEM. The induction of head twitches elicited by 5-HT2A receptor agonists is believed to represent a behavioural proxy of their psychedelic effects.
To evaluate the involvement of 5-HT2A receptor on the HTR induced by exemplary compounds of Formula I, mice were pretreated with the selective 5-HT2AR antagonist M100907 (also known as volinanserin) prior to the administration of exemplary compounds of Formula I, for example, 1-2 (10 mg/kg SC).

[2H]C([2H])([2H])N1CCC[C@@H]1Cc1c[nH]c2cccc(O)c12 [Compound I-2, (R)-3-((1-(methyl-d3)pyrrolidin-2-yl)methyl)-1H-indol-4-ol]
effect of I-2 on HTR after pretreatment with 5-HT2A antagonist M100907: completely blocked
